One assay has as its system HL-60 cells. The assay can be described thus: induction of HL-60 cell differentiation to macrophages (NBT reduction). The settings on record: 96 hours incubation, formazan at 650 nm. Format: cell-based, human. The method, then: It is known in the literature (Mangelsdorf, D. J. et al., J. Cell. Biol. 98: 391-398 (1984)) that the treatment of human leukemia cells (promyelocyte cell line HL-60, available, e.g., from the ATCC, Rockville, Md.) in vitro with calcitriol induces the differentiation of the cells to macrophages.
HL-60 cells are cultivated in tissue culture medium (RPMI - 10% fetal calf serum) at 37° C. in an atmosphere of 5% CO2 in air.
For substance testing, the cells are centrifuged and 2.8×10^5 cells/ml are suspended in phenol red-free tissue culture medium. The test substances are dissolved in ethanol and diluted with tissue culture medium without phenol red to achieve the desired concentration. The diluted test substances are mixed with the cell suspension in a ratio of 1:10 and 100 μl each of this cell suspension mixed with substance is pipetted in a depression of a 96-hole plate. As a control, a cell suspension is prepared similarly, but only with the solvent. […]
To dissolve the formed intracellular formazan crystals, 100 μl of potassium hydroxide (2 mol/l) and 100 μl of dimethylsulfoxide are pipetted into each depression and ultrasonically irradiated for 1 minute. The concentration of formazan is spectrophotometrically measured at 650 nm.
As a measurement for the differentiation induction of HL 60 cells to macrophages, the concentration of formed formazan is determined. […]

The test system of assay [1] is human peripheral blood mononuclear cells. The assay can be described thus: PHA-stimulated lymphocyte proliferation ([3H]-thymidine incorporation). Format: cell-based. The note with it: PBMC, PHA 5 μg/well, 96 hours after stimulation, read-out: concentration inhibiting lymphocyte proliferation by 50%. The method, then:
At the time of seeding, cells were treated with phytohemagglutinin (PHA) 5 μg/well. The test compound was added at the same time as PHA in various concentration. Lymphocyte proliferation was determined 96 hours after stimulation by incorporation of [^3 H]-thymidine. For that, [^3 H]-thymidine (0.2 μCi/well) was added for the last 6 hours of culture, then medium and cells were filtrated through a glass fiber filter. Radioactivity of the filters were determined in a β-counter.

Assay [2] relates to IL-2 secretion, human peripheral blood mononuclear cells. The assay can be described thus: IL-2 secretion by PHA-stimulated lymphocytes (ELISA). The assay is classed as cell-based. The note with it: compared with calcitriol; PHA 20 μg/well, 24 hours. The method, then:
For determination of IL-2 secretion, human peripheral blood mononuclear cells were prepared as above, seeded at a density of 2×10^6 cells/well×200 μl into 24-well-plates and cultured in RPMI 1640 in the presence of 2% fetal calf serum. At the time of seeding, PHA (20 μg/well) and the test compound was added. 24 hours after stimulation, cell cultures were harvested, medium separated from cells by centrifugation, and IL-2 concentration in the medium determined by an ELISA based on a polyclonal antibody IL-2.

Turning to `C=C1/C(=C\C=C2/CCC[C@]3(C)[C@@H](C(C)(C)/C=C/C=C/C(C)(C)O)CC[C@@H]23)C[C@@H](O)C[C@@H]1O` [1(S),3(R)-Dihydroxy-20-(5-hydroxy-5-methyl-hexa-1E,3E-dien-1-yl)-20-methyl-9,10-secopregna-5Z,7E,10(19)-triene], the relative activity in inducing differentiation: ED50 test substance/ED50 calcitriol with HL-60 cells is about 0.001.

As for `C=C1/C(=C\C=C2/CCC[C@]3(C)[C@@H]([C@H](C)CCCC(C)(C)O)CC[C@@H]23)C[C@@H](O)C[C@@H]1O` [1,25-dihydroxy-vitamin D3, 1α,25-dihydroxycholecalciferol, reference compound], in assay [1], the IC50 worked out at 0.44 nM.

With `C=C1/C(=C\C=C2/CCC[C@]3(C)[C@@H](C(C)(C)CC=CC(C)(C)O)CC[C@@H]23)C[C@@H](O)C[C@@H]1O` [ZK 157202, 1α,25-dihydroxy-20-methyl-23,24-dehydrovitamin D3], the IC50 in assay [1] is 0.013 nM. For the same compound, the “concentration range at which inhibition of IL-2 secretion starts” value in assay [2] was “about the same as for calcitriol”.

Values taken from US5446035A, “20-methyl-substituted vitamin D derivatives” (Schering Aktiengesellschaft, priority 1991, dated 1995).
